Measured values: patent US12447156B2, “Treating progressive familial intrahepatic cholestasis (PFIC) with IBAT inhibitors” (ALBIREO AB, priority 2020, dated 2025)

What was measured:
patients with PFIC [1] = test: PEDFIC 2 open-label phase 3 extension trial, interim analysis: efficacy; format: in vivo, human; settings: for mean change from baseline in sBAs through PEDFIC 2 week 12: odevixibat naive at PEDFIC 2 baseline
Experimental: After treatment in the first trial (Example 1), patients were eligible to enroll in a second trial, a 72-week open-label extension trial. In this ongoing 72-week open-label extension trial, PFIC patients were treated with odevixibat 120 μg/kg/day. The 69 patients (PFIC1 (26%), PFIC2 (65%) or PFIC3 (7%)) treated with 120 μg/kg/day for up to 48 weeks experienced a durable effect on serum bile acids reduction and improvement in growth velocity based on review of z scores for height, weight and BMI, and improvement in ALT, AST and total bilirubin. The effects were maintained for patients treated for 18 months or longer. The example details the interim analysis through 24 weeks of treatment.
(§1) Study Design • This phase 3 study included a screening period (for newly enrolled patients [i.e., cohort 2] only) and a 72-week treatment period (FIG. 9) in which all patients received oral, once-daily odevixibat 120 μg/kg. • Patients returned to the clinic 4 and 12 weeks after the first dose of odevixibat and then approximately every 10 to 12 weeks thereafter. • Following the 72-week treatment period, patients either enrolled in an optional extension for continued treatment or returned for a follow-up visit 4 weeks after ending study drug. Outcomes, Assessments, and Statistical Analysis • The primary efficacy outcomes were to assess the effects of odevixibat on sBAs and pruritus, including mean changes and proportion of patients meeting response criteria. • sBA responders were defined as patients who achieved a normalization of sBAs or reduction of ≥70%. • Pruritus responders were defined as patients who achieved a ≥1-point drop on the pruritus assessment. • Secondary outcomes included characterizing the long-term safety and tolerability of odevixibat, as well as the effects of odevixibat on growth, biliary diversion and/or liver transplantation, and markers of cholestasis and liver disease. • For the P1O and PIP groups, there were 2 baselines (PEDFIC 1 baseline and PEDFIC 2 baseline); for those in cohort 2, baseline refers to the value prior to initiation of odevixibat in PEDFIC 2. • This interim analysis focuses on data collected after 24 weeks of treatment in PEDFIC 2. • T tests were used to calculate P values for primary outcomes in the P1O group only; other outcomes were summarized descriptively.

patients with PFIC [2] = test: PEDFIC 2 open-label extension trial, interim analysis: safety (TEAEs); format: in vivo, human
Experimental: as §1

[3] = Cohort 2, through week 24 of PEDFIC 2, n 4
[4] = P1O, through week 24 of PEDFIC 2, n 21
[5] = P1P, through week 24 of PEDFIC 2, n 9

CCCCC1(CCCC)CN(c2ccccc2)c2cc(SC)c(OCC(=O)N[C@@H](C(=O)N[C@@H](CC)C(=O)O)c3ccc(O)cc3)cc2S(=O)(=O)N1 [Odevixibat, 1,1-dioxo-3,3-dibutyl-5-phenyl-7-methylthio-8-(N-{(R)-α-[N-((S)-1-carboxypropyl)carbamoyl]-4-hydroxybenzyl}carbamoylmethoxy)-2,3,4,5-tetrahydro-1,2,5-benzothiadiazepine]
PELD/MELD, Mean Change From Baseline (SE) (patients with PFIC [1]; Cohort 2, through week 24 of PEDFIC 2, n 2): 1.7 (5.8)
APRI, Mean Change From Baseline (SE) (patients with PFIC [1]; [3]): 0.1 (0.2)
Serum ALT, Mean Change From Baseline (SE) (patients with PFIC [1]; [3]): −9.8 (31.1) U/L
Serum AST, Mean Change From Baseline (SE) (patients with PFIC [1]; [3]): −7.8 (16.2) U/L
Total bilirubin, Mean Change From Baseline (SE) (patients with PFIC [1]; [3]): −0.2 (0.5) mg/dL
mean sBAs at PEDFIC 2 week 24 (patients with PFIC [1]; P1O group, ~48 weeks cumulative odevixibat exposure, PEDFIC 1 baseline 251.8): 85.1 µmol/L
mean monthly pruritus score at PEDFIC 2 week 24 (patients with PFIC [1]; P1O group, PEDFIC 1 baseline 3.0): 1.4
mean height Z score at week 24 of PEDFIC 2 (patients with PFIC [1]; P1O group, PEDFIC 1 baseline −1.6): −0.5
mean weight Z score after 48 weeks (patients with PFIC [1]; P1O group, baseline −0.9): 0.2
PELD/MELD, Mean Change From Baseline (SE) (patients with PFIC [1]; P1O, through week 24 of PEDFIC 2, n 17): −0.2 (0.3)
APRI, Mean Change From Baseline (SE) (patients with PFIC [1]; P1O, through week 24 of PEDFIC 2, n 18): −0.0 (0.1)
Serum AST, Mean Change From Baseline (SE) (patients with PFIC [1]; P1O, through week 24 of PEDFIC 2, n 20): −14.6 (10.0) U/L
Serum ALT, Mean Change From Baseline (SE) (patients with PFIC [1]; [4]): −26.9 (22.6) U/L
Total bilirubin, Mean Change From Baseline (SE) (patients with PFIC [1]; [4]): −0.2 (0.1) mg/dL
mean sBAs over the course of PEDFIC 2 (patients with PFIC [1]; P1P group (placebo in PEDFIC 1), 120 μg/kg/day, PEDFIC 2 baseline 270.8): 155.6 µmol/L
APRI, Mean Change From Baseline (SE) (patients with PFIC [1]; [5]): 0.1 (0.1)
PELD/MELD, Mean Change From Baseline (SE) (patients with PFIC [1]; [5]): −1.4 (1.2)
Serum ALT, Mean Change From Baseline (SE) (patients with PFIC [1]; [5]): 16.3 (20.7) U/L
Serum AST, Mean Change From Baseline (SE) (patients with PFIC [1]; [5]): −1.7 (5.6) U/L
Total bilirubin, Mean Change From Baseline (SE) (patients with PFIC [1]; [5]): −1.6 (1.3) mg/dL
patients who underwent surgical biliary diversion or had a liver transplant (patients with PFIC [1]; PEDFIC 1 baseline through week 24 of PEDFIC 2, 2 patients): 3%
change in mean sBAs from baseline to week 12 of PEDFIC 2 (patients with PFIC [1]; cohort 2 (newly enrolled), 120 μg/kg/day): -73.1 µmol/L
mean sBAs at week 12 of PEDFIC 2 (patients with PFIC [1]; cohort 2 (newly enrolled), 120 μg/kg/day, baseline 221.5): 157.0 µmol/L
mean change from baseline in sBAs through PEDFIC 2 week 12 (patients with PFIC [1]; PFIC1, n=5): −31.7
mean change from baseline in sBAs through PEDFIC 2 week 12 (patients with PFIC [1]; PFIC2, n=17): −120.8
mean change from baseline in sBAs through PEDFIC 2 week 12 (patients with PFIC [1]; PFIC3, n=3): −107.5
average sBAs relative to published threshold for PFIC2 disease modification (patients with PFIC [1]; patients treated for 48 weeks): fell below the published threshold for PFIC2 disease modification
fat-soluble vitamin deficiencies refractory to clinically recommended vitamin supplementation (patients with PFIC [2]; PEDFIC 2): no new or worsening fat-soluble vitamin deficiencies
Any TEAE, patients (patients with PFIC [2]; PEDFIC 2, Cohort 2, n = 16): 8 (50.0) n (%)
Drug-related TEAE by preferred term: Blood bilirubin increased (patients with PFIC [2]; PEDFIC 2, Cohort 2, n = 16): 3 (18.8) n (%)
Drug-related TEAE by preferred term: Cough (patients with PFIC [2]; PEDFIC 2, Cohort 2, n = 16): 0 n (%)
Drug-related TEAE by preferred term: Diarrhea (patients with PFIC [2]; PEDFIC 2, Cohort 2, n = 16): 0 n (%)
Drug-related TEAE by preferred term: INR increased (patients with PFIC [2]; PEDFIC 2, Cohort 2, n = 16): 2 (12.5) n (%)
Drug-related TEAE by preferred term: Pruritus (patients with PFIC [2]; PEDFIC 2, Cohort 2, n = 16): 0 n (%)
Drug-related TEAE by preferred term: Pyrexia (patients with PFIC [2]; PEDFIC 2, Cohort 2, n = 16): 2 (12.5) n (%)
Drug-related TEAE by preferred term: URTI (patients with PFIC [2]; PEDFIC 2, Cohort 2, n = 16): 0 n (%)
Drug-related TEAEs, patients (patients with PFIC [2]; PEDFIC 2, Cohort 2, n = 16): 5 (31.3) n (%)
Mild TEAE, patients (patients with PFIC [2]; PEDFIC 2, Cohort 2, n = 16): 2 (12.5) n (%)
Moderate TEAE, patients (patients with PFIC [2]; PEDFIC 2, Cohort 2, n = 16): 3 (18.8) n (%)
Serious TEAEs, patients (patients with PFIC [2]; PEDFIC 2, Cohort 2, n = 16): 1 (6.3) n (%)
Severe TEAE, patients (patients with PFIC [2]; PEDFIC 2, Cohort 2, n = 16): 3 (18.8) n (%)
TEAEs leading to discontinuation, patients (patients with PFIC [2]; PEDFIC 2, Cohort 2, n = 16): 2 (12.5) n (%)
Any TEAE, patients (patients with PFIC [2]; PEDFIC 2, P1O, n = 34): 28 (82.4) n (%)
Drug-related TEAE by preferred term: Blood bilirubin increased (patients with PFIC [2]; PEDFIC 2, P1O, n = 34): 4 (11.8) n (%)
Drug-related TEAE by preferred term: Cough (patients with PFIC [2]; PEDFIC 2, P1O, n = 34): 8 (23.5) n (%)
Drug-related TEAE by preferred term: Diarrhea (patients with PFIC [2]; PEDFIC 2, P1O, n = 34): 6 (17.6) n (%)
Drug-related TEAE by preferred term: INR increased (patients with PFIC [2]; PEDFIC 2, P1O, n = 34): 2 (5.9) n (%)
Drug-related TEAE by preferred term: Pruritus (patients with PFIC [2]; PEDFIC 2, P1O, n = 34): 4 (11.8) n (%)
Drug-related TEAE by preferred term: Pyrexia (patients with PFIC [2]; PEDFIC 2, P1O, n = 34): 7 (20.6) n (%)
Drug-related TEAE by preferred term: URTI (patients with PFIC [2]; PEDFIC 2, P1O, n = 34): 9 (26.5) n (%)
Drug-related TEAEs, patients (patients with PFIC [2]; PEDFIC 2, P1O, n = 34): 10 (29.4) n (%)
Mild TEAE, patients (patients with PFIC [2]; PEDFIC 2, P1O, n = 34): 17 (50.0) n (%)
Moderate TEAE, patients (patients with PFIC [2]; PEDFIC 2, P1O, n = 34): 10 (29.4) n (%)
Serious TEAEs, patients (patients with PFIC [2]; PEDFIC 2, P1O, n = 34): 0 n (%)
Severe TEAE, patients (patients with PFIC [2]; PEDFIC 2, P1O, n = 34): 1 (2.9) n (%)
TEAEs leading to discontinuation, patients (patients with PFIC [2]; PEDFIC 2, P1O, n = 34): 0 n (%)
Any TEAE, patients (patients with PFIC [2]; PEDFIC 2, P1P, n = 19): 14 (73.7) n (%)
Drug-related TEAE by preferred term: Blood bilirubin increased (patients with PFIC [2]; PEDFIC 2, P1P, n = 19): 2 (10.5) n (%)
Drug-related TEAE by preferred term: Cough (patients with PFIC [2]; PEDFIC 2, P1P, n = 19): 2 (10.5) n (%)
Drug-related TEAE by preferred term: Diarrhea (patients with PFIC [2]; PEDFIC 2, P1P, n = 19): 1 (5.3) n (%)
Drug-related TEAE by preferred term: INR increased (patients with PFIC [2]; PEDFIC 2, P1P, n = 19): 2 (10.5) n (%)
Drug-related TEAE by preferred term: Pruritus (patients with PFIC [2]; PEDFIC 2, P1P, n = 19): 2 (10.5) n (%)
Drug-related TEAE by preferred term: Pyrexia (patients with PFIC [2]; PEDFIC 2, P1P, n = 19): 4 (21.1) n (%)
Drug-related TEAE by preferred term: URTI (patients with PFIC [2]; PEDFIC 2, P1P, n = 19): 5 (26.3) n (%)
Drug-related TEAEs, patients (patients with PFIC [2]; PEDFIC 2, P1P, n = 19): 5 (26.3) n (%)
Mild TEAE, patients (patients with PFIC [2]; PEDFIC 2, P1P, n = 19): 6 (31.6) n (%)
Moderate TEAE, patients (patients with PFIC [2]; PEDFIC 2, P1P, n = 19): 7 (36.8) n (%)
Serious TEAEs, patients (patients with PFIC [2]; PEDFIC 2, P1P, n = 19): 3 (15.8) n (%)
Severe TEAE, patients (patients with PFIC [2]; PEDFIC 2, P1P, n = 19): 1 (5.3) n (%)
TEAEs leading to discontinuation, patients (patients with PFIC [2]; PEDFIC 2, P1P, n = 19): 1 (5.3) n (%)
mean serum chemistry, hematology, urinalysis, international normalized ratio values (patients with PFIC [2]; PEDFIC 2, laboratory assessments): No clinically significant changes or safety signals
patients reporting mild/moderate TEAEs (patients with PFIC [2]; PEDFIC 2, of 50 patients overall with any TEAE): 45 patients
rate of discontinuations due to TEAEs (patients with PFIC [2]; PEDFIC 2 overall): < 30
patients overall with any TEAE (patients with PFIC [2]; PEDFIC 2 overall (69 patients)): 50 patients
incidence of diarrhea (patients with PFIC [2]; PEDFIC 2 overall, 7 patients, through week 24): 10.1%
deaths or drug-related serious TEAEs (patients with PFIC [2]; PEDFIC 2 through week 24): no deaths or drug-related serious TEAEs occurred
tolerability (patients with PFIC [2]; PEDFIC 2 through week 24, 120 μg/kg/day): generally well tolerated
